Earlier results, collected in patent US6303615A, “2,3 disubstituded-4(3H)-quinazolinones” (Pfizer Inc, priority 1999, dated 2001).

Assays:
[1] = reported in literature (LaPeillet et al.)
[2] = reported in literature (Sheardown et al.; Buchan et al.; LePeillet et al.)

| SMILES | neuroprotection in rat global ischemia models [1] | preventing global and focal ischemic damage [2] |
| --- | --- | --- |
| CC1=NN=C(c2ccc(N)cc2)c2cc3c(cc2C1)OCO3 [GKYI 52466] | effective neuroprotective agent |  |
| NS(=O)(=O)c1cccc2c1c([N+](=O)[O-])cc1[nH]c(=O)c(=O)[nH]c12 [NBQX, 2,3-dihydroxy-6-nitro-7-sulfamoylbenzo[f-]quinoxaline] |  | effective |
